This passage reports solubility results from patent publication US20210387990A1, “METHOD FOR PRODUCING DIMETHOXYBENZENE COMPOUND” (TAIHO PHARMACEUTICAL CO., LTD., priority 2018, published 2021).

This data set can be described thus: solubility in solvents. Conditions: in water, highly water-soluble organic solvents, and highly fat-soluble organic solvents; free form. It is filed as physicochemical.

With `COc1cc(C#Cc2nn([C@H]3CCNC3)c3ncnc(N)c23)cc(OC)c1` [compound B, (S)-3-((3,5-dimethoxyphenyl)ethynyl)-1-(pyrrolidin-3-yl)-1H-pyrazolo[3,4-d]pyrimidin-4-amine], the solubility result was “easily soluble”.
